Experimental data published in patent US11021444B2, “Antiviral compounds” (priority 2013, dated 2021).
Where two headings read alike, the source gives them in different places.

Assays:
[1] = tested on: Respiratory Syncytial Virus (RSV) long strain; assay: microbe, parasite or virus in culture; format: cell-based; conditions: human respiratory syncytial virus, Tables A and B list compounds by EC50 band
Outline: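 CPE-reduction format: viability measured colorimetrically with CCK-8 (450 nm, 630 nm reference) after 3-4 h, following 5-day infection at 37 °C, 5% CO2. Cells were HEp-2; inoculum 100 TCID50/well; duplicate 9-point 1/3 series starting at 100 μM or 1 μM.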

[2] = Cytotoxicity Determination (CCK-8, without addition of virus); format: cell-based; conditions: human, 50% cytotoxicity concentration (CC50)
Outline: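 Cytotoxicity was measured by CCK-8 after 3-4 hours at 37 °C, following 5 days of uninfected exposure at 37 °C and 5% CO2. Compounds ran as duplicate 7-point 1/2 dilutions starting at 100 μM, with 1% final DMSO. HEp-2 cells had been plated at 1,500/well the day before.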

recombinant RSV complex = recombinant RSV complex (Human respiratory syncytial virus A, UniProt P28887); assay: RSV Polymerase Inhibition Assay; format: biochemical
recombinant RSV complex, sequence (P28887 whole entry): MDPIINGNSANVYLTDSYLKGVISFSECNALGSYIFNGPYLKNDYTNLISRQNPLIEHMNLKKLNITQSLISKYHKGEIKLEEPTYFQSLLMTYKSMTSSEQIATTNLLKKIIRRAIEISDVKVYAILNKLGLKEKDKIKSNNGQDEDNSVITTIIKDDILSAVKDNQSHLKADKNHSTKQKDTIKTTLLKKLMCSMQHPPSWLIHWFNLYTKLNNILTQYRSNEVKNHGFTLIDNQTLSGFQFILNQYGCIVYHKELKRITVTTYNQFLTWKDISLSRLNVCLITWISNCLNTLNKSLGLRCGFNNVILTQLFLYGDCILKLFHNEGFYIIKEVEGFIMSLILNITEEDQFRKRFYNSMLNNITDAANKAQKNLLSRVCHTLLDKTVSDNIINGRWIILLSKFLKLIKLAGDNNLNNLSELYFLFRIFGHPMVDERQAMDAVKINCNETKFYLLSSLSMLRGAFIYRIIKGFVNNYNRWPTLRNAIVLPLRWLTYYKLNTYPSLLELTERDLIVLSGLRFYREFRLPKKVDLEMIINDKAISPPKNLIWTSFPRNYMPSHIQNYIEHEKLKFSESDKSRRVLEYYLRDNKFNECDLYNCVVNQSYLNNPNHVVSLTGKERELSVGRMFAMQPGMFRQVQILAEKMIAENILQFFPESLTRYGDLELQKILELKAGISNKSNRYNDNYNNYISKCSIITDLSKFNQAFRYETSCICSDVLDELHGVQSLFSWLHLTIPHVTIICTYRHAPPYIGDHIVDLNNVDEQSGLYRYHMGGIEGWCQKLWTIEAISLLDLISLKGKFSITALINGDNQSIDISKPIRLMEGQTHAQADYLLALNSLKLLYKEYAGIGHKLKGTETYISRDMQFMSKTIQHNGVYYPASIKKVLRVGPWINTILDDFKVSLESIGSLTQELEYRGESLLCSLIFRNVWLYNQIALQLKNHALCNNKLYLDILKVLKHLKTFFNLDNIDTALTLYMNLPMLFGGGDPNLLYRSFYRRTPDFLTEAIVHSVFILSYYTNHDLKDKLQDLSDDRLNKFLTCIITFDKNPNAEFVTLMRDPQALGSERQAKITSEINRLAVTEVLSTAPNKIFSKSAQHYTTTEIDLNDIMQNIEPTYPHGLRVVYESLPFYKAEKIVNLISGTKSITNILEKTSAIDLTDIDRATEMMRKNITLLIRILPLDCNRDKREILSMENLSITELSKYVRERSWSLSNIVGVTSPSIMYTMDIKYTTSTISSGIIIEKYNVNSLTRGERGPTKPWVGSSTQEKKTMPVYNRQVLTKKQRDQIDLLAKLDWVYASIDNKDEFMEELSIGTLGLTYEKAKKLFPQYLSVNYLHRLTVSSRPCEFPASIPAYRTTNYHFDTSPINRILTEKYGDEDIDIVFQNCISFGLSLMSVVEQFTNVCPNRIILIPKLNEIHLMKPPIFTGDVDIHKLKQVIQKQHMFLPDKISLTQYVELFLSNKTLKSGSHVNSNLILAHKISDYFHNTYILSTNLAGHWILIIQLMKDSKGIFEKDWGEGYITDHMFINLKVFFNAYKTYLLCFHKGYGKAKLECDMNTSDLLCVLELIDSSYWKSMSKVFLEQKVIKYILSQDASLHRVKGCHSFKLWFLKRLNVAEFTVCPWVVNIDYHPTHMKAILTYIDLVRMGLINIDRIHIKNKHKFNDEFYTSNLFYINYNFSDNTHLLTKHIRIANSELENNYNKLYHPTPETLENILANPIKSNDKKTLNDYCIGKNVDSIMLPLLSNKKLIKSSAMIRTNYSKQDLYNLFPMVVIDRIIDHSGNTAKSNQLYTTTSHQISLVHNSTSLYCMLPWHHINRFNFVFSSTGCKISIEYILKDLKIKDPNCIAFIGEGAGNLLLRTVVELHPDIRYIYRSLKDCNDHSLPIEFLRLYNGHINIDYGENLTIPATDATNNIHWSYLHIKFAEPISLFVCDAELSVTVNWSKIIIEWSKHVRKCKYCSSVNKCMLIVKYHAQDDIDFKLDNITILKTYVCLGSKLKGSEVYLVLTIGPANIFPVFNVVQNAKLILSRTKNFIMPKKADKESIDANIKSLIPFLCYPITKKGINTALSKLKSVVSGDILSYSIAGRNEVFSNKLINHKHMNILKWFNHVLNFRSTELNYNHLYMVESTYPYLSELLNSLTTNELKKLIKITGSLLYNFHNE
recombinant RSV complex, sequence (P03421 whole entry, further chain): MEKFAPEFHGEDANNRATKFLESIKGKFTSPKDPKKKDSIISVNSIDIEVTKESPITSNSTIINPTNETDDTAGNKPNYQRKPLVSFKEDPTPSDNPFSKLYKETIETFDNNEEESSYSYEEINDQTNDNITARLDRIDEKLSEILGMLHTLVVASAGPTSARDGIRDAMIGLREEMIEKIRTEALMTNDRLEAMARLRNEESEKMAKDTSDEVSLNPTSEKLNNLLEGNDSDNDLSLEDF
Outline: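 Inhibition measured as reduced incorporation of radiolabel into RNA products, detected by scintillation counting. Reactions: recombinant RSV complex (10 nM), RNA oligonucleotides, Tris-HCl pH 7.5, 6 mM MgCl2, inhibitor titration, 2 h at 30 °C, EDTA stop.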

[3] = HEp-2, 120 h, read-out: 50% effective concentration (EC50), HEp-2 cells infected with RSV long strain, 5 days, CCK-8 readout
[4] = 120 h, read-out: 50% effective concentration (EC50), HEp-2 cells infected with RSV long strain, 5 days, CCK-8 readout

SMILES | EC50 [1, 3] [µM] | CC50 at 5 days [2] [µM] | IC50 (recombinant RSV complex) [µM] | EC50 [1, 4] [µM]
COc1cc(C(=O)NCC(O)(c2cc3c(c(-c4ccc(F)cc4)n2)OCC3(C)N)C(F)(F)F)ccc1OC1CC(O)C1 (stereo not drawn) [Compound 597] | < 1 | 10 to 100 | < 10 | 
COc1cc(C(=O)NCC(C)(O)c2ccc(OC)c(-c3ccc(F)c(Br)c3)n2)ccc1OCCO (stereo not drawn) [Compound 167] | < 1 | 10 to 100 | < 1 | 
COc1cc(C(=O)NCC(=O)c2cc3c(c(-c4ccc(F)c(Cl)c4)n2)OCC3(C)C)ccc1OC1CCNC1=O (stereo not drawn) [Compound 217] | < 1 | 10 to 100 | < 1 | 
COc1cc(C(=O)NC[C@@](O)(c2cc(C(C)(C)N)cc(-c3ccc(F)cc3)n2)C(F)(F)F)ccc1OCCO [Compound 553] | < 1 | 10 to 100 | < 1 | 
COc1cc(C(=O)NCC(O)(c2cc(C(C)(C)N)cc(-c3ccc(F)c(Cl)c3)n2)C(F)(F)F)ccc1NC(C)=O (stereo not drawn) [Compound 592] | < 1 | 10 to 100 | < 10 | 
COc1cc(C(=O)NCC(=O)c2cc3c(c(-c4ccc(F)c(Cl)c4)n2)OCC3(C)C)ccc1OC1CCN(C)C1=O (stereo not drawn) [Compound 222] | < 1 | 10 to 100 | < 1 | 
CC(C)(N)c1cc(-c2ccc(F)cc2)nc(C(O)(CNC(=O)c2ccc3c(c2)NC(=O)C3)C(F)(F)F)c1 (stereo not drawn) [Compound 570] |  | 10 to 100 | < 1 | < 1
COc1ccc(C(O)(CNC(=O)c2ccc3c(c2)ncn3C)C(F)(F)F)nc1-c1ccc(F)c(Cl)c1 (stereo not drawn) [Compound 265] | 1 to 50 | 10 to 100 | < 10 | 
COc1cc(C(=O)NCC(N)(c2ccc(OC)c(-c3ccc(F)c(Cl)c3)n2)C(F)F)ccc1OC1CC1 (stereo not drawn) [Compound 517] | < 1 | 10 to 100 | < 1 | 
COc1cc(C(=O)NCC(O)(CN2CCNC(=O)C2)c2ccc(OC)c(-c3ccc(F)c(Cl)c3)n2)ccc1OCCO (stereo not drawn) [Compound 182] | < 1 | > 100 | < 1 | 
COc1cc(C(=O)NCC(O)(c2cc(C(C)(C)N)cc(-c3ccc(F)cc3)n2)C(F)(F)F)ccc1-c1ccncc1 (stereo not drawn) [Compound 599] | < 1 | 10 to 100 | < 1 | 
COc1cc(C(=O)NCC(O)(CN2CCCC2)c2ccc(OC)c(-c3ccc(F)c(Cl)c3)n2)ccc1OCCO (stereo not drawn) [Compound 187] | 1 to 50 | > 100 | < 10 | 
COc1cc(C(=O)NCC(O)(c2cc3c(c(-c4ccc(C(F)(F)F)nc4)n2)OCC3(C)N)C(F)(F)F)ccc1OCCO (stereo not drawn) [Compound 673] | 1 to 50 | > 100 | < 10 | 
COc1cc(C(=O)NCC(O)(c2cc3c(c(-c4ccc(F)nc4)n2)OCC3(C)N)C(F)(F)F)ccc1OCCO (stereo not drawn) [Compound 492] | 1 to 50 | > 100 | < 10 | 
COc1cc(C(=O)NCC(O)(c2cc3c(c(-c4ccc(F)cc4)n2)OCC3(N)C(C)C)C(F)(F)F)ccc1OC[C@@H](C)O (stereo partly drawn) [Compound 568] | < 1 | 10 to 100 | < 1 | 
COc1cc(C(=O)NCC(O)(c2ccc(OC)c(-c3ccc(F)cc3)n2)C(F)(F)F)ccc1OCCO (stereo not drawn) [Compound 619] | < 1 | 10 to 100 | < 1 | 
COc1cc(C(=O)NCC(O)(CN)c2ccc(OC)c(-c3ccc(F)c(Cl)c3)n2)ccc1OCCO (stereo not drawn) [Compound 179] | 1 to 50 | > 100 | < 1 | 
COc1cc(C(=O)NCC(O)c2cccc(-c3csc4c(F)cccc34)n2)ccc1OCCO (stereo not drawn) [Compound 165] | 1 to 50 | 10 to 100 | < 10 | 
COc1cc(C(=O)NCC(O)(c2ccc(OC)c(-c3ccc(F)c(Cl)c3)n2)C(F)(F)F)ccc1OC1CCCC1=O (stereo not drawn) [Compound 257] | < 1 | 10 to 100 | < 1 | 

SMILES | EC50 [1, 3] [µM] | CC50 at 5 days [2] [µM] | IC50 (recombinant RSV complex) [µM] | EC50 [1, 4] [µM]
COc1cc(C(=O)NC[C@@](O)(c2cc3c(c(-c4ccc(F)cc4)n2)OCC3(C)CN)C(F)(F)F)ccc1OCCO (stereo partly drawn) [Compound 633a] | 1 to 50 | 10 to 100 | < 1 | 
COc1ccc(C(O)(CNC(=O)c2ccc(OC3CCNC3=O)cc2)C(F)(F)F)nc1-c1ccc(F)c(Cl)c1 (stereo not drawn) [Compound 261] | < 1 | 10 to 100 | < 1 | 
COc1cc(C(=O)NCC(=O)c2cc3c(c(-c4ccc(F)c(Cl)c4)n2)OCC3(C)O)ccc1OC1CC1 (stereo not drawn) [Compound 473] | < 1 | 10 to 100 | < 1 | 
COc1cc(C(=O)NCC(O)(c2cc3c(c(-c4ccc(F)c(Cl)c4)n2)OCC3(C)C)C(F)(F)F)cc2ccc(C(N)=O)nc12 (stereo not drawn) [Compound 214] | < 1 | 10 to 100 | < 1 | 
COc1cc(C(=O)NCC(C)(O)c2cc3c(c(-c4ccc(F)c(Cl)c4)n2)OCC3(C)C)ccc1OCCF (stereo not drawn) [Compound 227] | < 1 | 10 to 100 | < 1 | 
Cc1ncc(C(=O)NCC(O)(c2cc(C(C)(C)N)cc(-c3ccc(F)cc3)n2)C(F)(F)F)[nH]1 (stereo not drawn) [Compound 609] | 1 to 50 | 10 to 100 | < 10 | 
COc1cc(C(=O)NC[C@@](O)(c2cc3c(c(-c4ccc(F)cc4)n2)OC[C@]3(C)N)C(F)(F)F)ccc1OC[C@@H](C)O [Compound 629] | < 1 | 10 to 100 | < 1 | 
COc1cc(C(=O)NCC(O)(c2cc3c(c(-c4ccc(F)c(Cl)c4)n2)OCC3(C)C)C(F)(F)F)ccc1CN1CCNC1=O (stereo not drawn) [Compound 216] | 1 to 50 | 10 to 100 | < 10 | 
COc1cc(C(=O)NCC(O)(CN2CCNCC2=O)c2ccc(OC)c(-c3ccc(F)c(Cl)c3)n2)ccc1OCCO (stereo not drawn) [Compound 196] | 1 to 50 | > 100 | < 1 | 
COc1cc(C(=O)NCC(O)(c2cc(C(C)(C)N)cc(-c3ccc(F)c(Cl)c3)n2)C(F)(F)F)ccc1NS(C)(=O)=O (stereo not drawn) [Compound 593] | < 1 | 10 to 100 | < 1 | 
COc1ccc(C(O)(CNC(=O)c2ccc3[nH]cnc3c2)C(F)(F)F)nc1-c1ccc(F)c(Cl)c1 (stereo not drawn) [Compound 253] | 1 to 50 | 10 to 100 | < 10 | 
CC(C)(N)c1cc(-c2ccc(F)cc2)nc(C(O)(CNC(=O)c2ccc3oc(=O)[nH]c3c2)C(F)(F)F)c1 (stereo not drawn) [Compound 610] |  | 10 to 100 | < 1 | < 1
COc1cc(C(=O)NCC(F)c2ccc(OC)c(-c3ccc(F)c(Cl)c3)n2)ccc1OCCO (stereo not drawn) [Compound 149] | 1 to 50 | 10 to 100 | < 10 | 
COc1ccc(C(=O)NCC(C)(O)c2cccc(-c3csc4c(F)cccc34)n2)cc1OC (stereo not drawn) [Compound 142] | < 1 | 10 to 100 | < 1 | 
COc1cc(C(=O)NCC(O)(c2cc(C(C)(C)N)cc(-c3ccc(I)nc3)n2)C(F)(F)F)ccc1OC1CC1 (stereo not drawn) [Compound 557] | < 1 | 10 to 100 | < 1 | 
COc1cc(C(=O)NCC(O)(CN2CCNCC2)c2ccc(OC)c(-c3ccc(F)c(Cl)c3)n2)ccc1OCCO (stereo not drawn) [Compound 190] |  | > 100 | < 1 | 1 to 50
COc1cc(C(=O)NCC(O)(c2cc3c(c(-c4ccc(F)c(Cl)c4)n2)OCC3(C)N[S+]([O-])C(C)(C)C)C(F)(F)F)ccc1OC1CC1 (stereo not drawn) [Compound 482] | < 1 | 10 to 100 | < 1 | 
COc1cc(C(=O)NCC(C)(O)c2cc3c(c(-c4ccc(F)c(Cl)c4)n2)NCC3)ccc1OCCF (single isomer, unassigned) [Compound 294] | < 1 | > 100 | < 10 | 
